From patent publication US20250268903A1, “RXFP1 AGONISTS” (BRISTOL-MYERS SQUIBB COMPANY, priority 2021, published 2025) come the findings set out here.

The structures appear in SMILES notation. pEC50: −log10 of the molar value.

The assay deals with T1, human RXFP1 (Homo sapiens, UniProt Q9HBX9).
T1 construct: expressed in transfected cells
T1 sequence (Q9HBX9 1-757): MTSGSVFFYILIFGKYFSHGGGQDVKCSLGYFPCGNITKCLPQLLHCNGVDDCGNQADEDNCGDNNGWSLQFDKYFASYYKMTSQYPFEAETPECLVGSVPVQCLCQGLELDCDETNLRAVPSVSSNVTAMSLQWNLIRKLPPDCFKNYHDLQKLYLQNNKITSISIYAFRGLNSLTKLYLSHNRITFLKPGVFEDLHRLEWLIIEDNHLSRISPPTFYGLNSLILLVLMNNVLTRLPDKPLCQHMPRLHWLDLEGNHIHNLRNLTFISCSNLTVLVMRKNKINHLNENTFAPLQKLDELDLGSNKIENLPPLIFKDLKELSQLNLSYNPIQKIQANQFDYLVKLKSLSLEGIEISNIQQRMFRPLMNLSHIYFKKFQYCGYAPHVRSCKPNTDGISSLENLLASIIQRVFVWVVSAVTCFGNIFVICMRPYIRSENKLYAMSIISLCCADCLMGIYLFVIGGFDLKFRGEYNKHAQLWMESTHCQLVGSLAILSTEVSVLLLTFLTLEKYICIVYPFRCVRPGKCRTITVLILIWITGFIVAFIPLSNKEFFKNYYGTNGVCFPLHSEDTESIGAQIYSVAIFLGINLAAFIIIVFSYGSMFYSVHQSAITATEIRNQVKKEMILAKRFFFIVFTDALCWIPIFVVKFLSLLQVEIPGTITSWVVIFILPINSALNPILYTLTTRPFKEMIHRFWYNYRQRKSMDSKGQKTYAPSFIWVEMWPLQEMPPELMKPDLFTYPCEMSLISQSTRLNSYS
As to the kind of experiment: hRXFP1 HEK293 cAMP assay (HTRF). The conditions noted are these: HEK293 cells stably expressing human RXFP1, 30 min at room temperature. In kind it is cell-based. An outline of the steps: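 Intracellular cAMP was read by HTRF, with potency fitted to a 4-parameter logistic curve. Compound exposure (0.010 nM–50 μM final, 2% DMSO) lasted 30 min at room temperature. Cells were hRXFP1-HEK293 at 1500 per well in IBMX-containing (0.5 mM) HEPES-buffered HBSS.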
The compound `COc1ccc(CN2O[C@H]3COC[C@H]3C2=O)cc1C(=O)N[C@H]1[C@@H](C(=O)Nc2ccc(F)c(C(F)(F)F)c2)[C@H]2CC[C@@H]1/C2=C\C1CC1` [Example 299, (1R,2S,3R,4R,7Z)-3-(5-{[(3aR,6aR)-3-oxo-hexahydrofuro[3,4-d][1,2]oxazol-2-yl]methyl}-2-methoxybenzamido)-7-(cyclopropylmethylidene)-N-[4-fluoro-3-(trifluoromethyl)phenyl]bicyclo[2.2.1]heptane-2-carboxamide] gave a negative-log EC50 (pEC50) of 6.94.
On to `COc1ccc(CCCNC2CCC2)cc1C(=O)N[C@@H]1C2CCC(/C2=C/C(F)(F)F)[C@@H]1C(=O)Nc1ccc(F)c(C(F)(F)F)c1` (stereo partly drawn) [Example 122, (2S,3R,7Z)-3-{5-[3-(cyclobutylamino)pro-pyl]-2-methoxybenzamido}-N-[4-fluoro-3-(trifluoromethyl)phe-nyl]-7-(2,2,2-trifluoroethylidene)bi-cyclo[2.2.1]heptane-2-carboxamide], for which the pEC50 is 5.55.
Compound `COc1ccc(CC[C@H](C)O)cc1C(=O)N[C@@H]1C2CCC(/C2=C/C2CC2)[C@@H]1C(=O)Nc1ccc(F)c(C(F)(F)F)c1` (stereo partly drawn) [Example 94, (2S,3R,7Z)-7-(cyclopropylmethyli-dene)-N-[4-fluoro-3-(trifluoromethyl)phe-nyl]-3-{5-[(3S)-3-hydroxybutyl]-2-methoxybenzamido} bicyclo[2.2.1]heptane-2-carboxamide] gave a pEC50 of 7.21.
As for `COc1ccc(CCCOc2nc3ccccc3n2C)cc1C(=O)N[C@@H]1C2CCC(/C2=C/C(F)(F)F)[C@@H]1C(=O)Nc1ccc(F)c(C(F)(F)F)c1` (stereo partly drawn) [Example 105, (2S,3R,7Z)-N-[4-fluoro-3-(trifluoromethyl)phe-nyl]-3-(2-methoxy-5-{3-[(1-methyl-1H-1,3-benzodiazol-2-yl)oxy]propyl}benza-mido)-7-(2,2,2-trifluoroethylidene)bi-cyclo[2.2.1]heptane-2-carboxamide], the figure is 5.78; as for `COc1ccc(CCO)cc1C(=O)NC1C2CCC(/C2=C/C(F)(F)F)[C@@H]1C(=O)Nc1ccc(F)c(C(F)(F)F)c1` (some centres unmarked) [Example 55], 6.11.
On to `COc1ccc(S(=O)(=O)N2CCS(=O)(=O)CC2)cc1C(=O)N[C@H]1[C@@H](C(=O)Nc2ccc(F)c(C(F)(F)F)c2)[C@H]2CC[C@@H]1/C2=C\C1CC1` [Example 222, (1R,2S,3R,4R,7Z)-7-(cyclopropylmethylidene)-3-{5-[(1,1-dioxo-1λ^6-thiomorpholin-4-yl)sulfonyl]-2-methoxybenzamido}-N-[4-fluoro-3-(trifluoromethyl)phenyl]bicyclo[2.2.1] heptane-2-carboxamide], for which the negative-log EC50 (pEC50) is 7.07.
Compound `COC(=O)C1CC(c2ccc(OC)c(C(=O)N[C@H]3[C@@H](C(=O)Nc4ccc(F)c(C(F)(F)F)c4)[C@H]4CC[C@@H]3/C4=C\C(F)(F)F)c2)C1` (stereo partly drawn) [Example 331, methyl 3-(3-{(1R.2R,3S,4R,7Z)-3-{[4-fluoro-3-(trifluoromethyl)phenyl]carbamoyl}-7-(2,2,2-trifluoroethylidene)bicyclo[2.2.1]heptan-2-yl]carbamoyl}-4-methoxyphenyl) cyclobutane-1-carboxylate] had a negative logarithm of the EC50 (pEC50) of 6.26.
Compound `COC(=O)C1CC2(C1)CC(c1ccc(OC)c(C(=O)N[C@@H]3C4CCC(/C4=C/C(F)(F)F)[C@@H]3C(=O)Nc3ccc(F)c(C(F)(F)F)c3)c1)C2` (single isomer, unassigned) [Example 149] had a pEC50 of 6.07.
Compound `COc1ccc(/C(=C/CO)C(F)(F)F)cc1C(=O)N[C@H]1[C@@H](C(=O)Nc2ccc(F)c(C(F)(F)F)c2)[C@H]2CC[C@@H]1/C2=C\C1CC1` [Example 282, (1R,2S,3R,4R,Z)-7-(cyclopropylmethylene)-N-(4-fluoro-3-(trifluoromethyl)phenyl)-3-(2-methoxy-5-((Z)-1,1,1-trifluoro-4-hydroxybut-2-en-2-yl)benzamido) bicyclo[2.2.1]heptane-2-carboxamide] had a negative logarithm of the EC50 (pEC50) of 6.55.
In turn, `COc1c(F)cc(C(=O)N2CC3(CC(O)C3)C2)cc1C(=O)N[C@H]1[C@@H](C(=O)Nc2ccc(F)c(C(F)(F)F)c2)[C@H]2CC[C@@H]1/C2=C\C1CCCC1` [Example 371, (1R,2S,3R,4R,7Z)-7-(cyclopentyl-methylidene)-N-[4-fluoro-3-(trifluoromethyl)phenyl]-3-(3-fluoro-5-{6-hydroxy-2-azaspiro[3.3]heptane-2-carbonyl}-2-methoxybenzamido) bicyclo[2.2.1]heptane-2-carboxamide] showed a pEC50 of 8.55.
`COc1ccc(C2CCCC(O)C2)cc1C(=O)N[C@@H]1C2CCC(/C2=C/C(F)(F)F)[C@@H]1C(=O)Nc1ccc(F)c(C(F)(F)F)c1` (single isomer, unassigned) [Example 36]: the pEC50 is 6.35.
Compound `COc1ccc(COc2cccc(C(=O)O)c2)cc1C(=O)N[C@H]1[C@@H](C(=O)Nc2ccc(F)c(C(F)(F)F)c2)[C@H]2CC[C@@H]1/C2=C\C1CC1` [Example 12, 3-((3-(((1R,2R,3S,4R,Z)-7-(cyclopropylmethylene)-3-((4-fluoro-3-(trifluoromethyl)phenyl)carbamoyl)bicyclo[2.2.1]heptan-2-yl)carbamoyl)-4-methoxybenzyl)oxy)benzoic acid] had a negative-log EC50 (pEC50) of 8.00.
The result for `COc1ccc(C2CC2C(=O)N2CCC(O)CC2)cc1C(=O)N[C@H]1[C@@H](C(=O)Nc2ccc(F)c(C(F)(F)F)c2)[C@H]2CC[C@@H]1/C2=C\C(F)(F)F` (single isomer, unassigned) [Example 322] reads 6.48; that for `COc1ccc(CCC(C)(C)O)cc1C(=O)NC1C2CCC(/C2=C/C2CCOC2)[C@@H]1C(=O)Nc1ccc(F)c(C(F)(F)F)c1` (some centres unmarked) [Example 169, (7Z)-N-[4-fluoro-3-(trifluoromethyl)phe-nyl]-3-[5-(3-hydroxy-3-methylbutyl)-2-methoxybenzamido]-7-[(oxolan-3-yl)methylidene]bicy-clo[2.2.1]heptane-2-carboxamide], 6.99; that for `COc1ccc(/C=C/C(=O)N2CC3(CC(O)C3)C2)cc1C(=O)N[C@H]1[C@@H](C(=O)Nc2ccc(F)c(C(F)(F)F)c2)[C@H]2CC[C@@H]1/C2=C\C1CC1` [Example 309, (1R,2S,3R,4R,7Z)-7-(cyclopropylmethylidene)-N-[4-fluoro-3-(trifluoromethyl)phenyl]-3-{5-[(1E)-3-{6-hydroxy-2-azaspiro[3.3]heptan-2-yl}-3-oxoprop-1-en-1-yl]-2-methoxybenzamido} bicyclo[2.2.1]heptane-2-carboxamide], 7.77.
For `COc1ccc(CCCO)cc1C(=O)N[C@@H]1C2CCC(/C2=C/C2CCC2)[C@@H]1C(=O)Nc1ccc(F)c(C(F)(F)F)c1` (stereo partly drawn) [Example 86, (2S,3R,7Z)-7-(cyclobutylmethyli-dene)-N-[4-fluoro-3-(trifluoromethyl)phe-nyl]-3-[5-(3-hydroxypropyl)-2-methoxybenzamido] bicyclo[2.2.1]heptane-2-carboxamide], the pEC50 was 7.35.
Regarding `COc1ccc(CCC(C)(C)O)cc1C(=O)NC1C2CCC(/C2=C/C2CCCOC2)[C@@H]1C(=O)Nc1ccc(F)c(C(F)(F)F)c1` (single isomer, unassigned) [Example 172, (7Z)-N-[4-fluoro-3-(trifluoromethyl)phe-nyl]-3-[5-(3-hydroxy-3-methylbutyl)-2-methoxybenzamido]-7-[(oxan-3-yl)methylidene]bicy-clo[2.2.1]heptane-2-carboxamide], the pEC50 was 7.41.
